# Reference: ChEMBL document CHEMBL1201862, “PubChem BioAssay data set” (2004)
# Activity calls are given as the source filed them.
# Key:
# Bcl-2-related protein A1 [1] = target: T1, Bcl-2-related protein A1 (Mus musculus, UniProt Q07440); experiment: Bfl-1 binding inhibitors, SAR follow-up, biochemical, fluorescence polarization (AID 1070)
# T1 sequence (Q07440 whole entry): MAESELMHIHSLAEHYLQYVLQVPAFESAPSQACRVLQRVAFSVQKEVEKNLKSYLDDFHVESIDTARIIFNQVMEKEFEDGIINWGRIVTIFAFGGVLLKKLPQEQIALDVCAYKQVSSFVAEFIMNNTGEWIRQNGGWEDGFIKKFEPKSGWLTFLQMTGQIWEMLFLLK
# Bcl-2-related protein A1 [2] = target: T1, Bcl-2-related protein A1; experiment: small-molecule antagonists of Bfl-1/BH3 interaction – biochemical, TR-FRET, mouse Bfl-1, confirmation (AID 621);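 further: TR-FRET binding of GST-Bfl-1 to FITC-labelled Bid peptide via terbium antibody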
# [3] = target: T2, Short transient receptor potential channel 4 (Mus musculus, UniProt Q9QUQ5); experiment: block of DAMGO-driven TRPC4 calcium entry – cell-based, HEK293 TRPC4/mu-opioid, Fluo-4 calcium, dose response (AID 434942); type: functional;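 further: potency of inhibitors blocking the TRPC4 calcium response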
# T2 sequence (Q9QUQ5 whole entry): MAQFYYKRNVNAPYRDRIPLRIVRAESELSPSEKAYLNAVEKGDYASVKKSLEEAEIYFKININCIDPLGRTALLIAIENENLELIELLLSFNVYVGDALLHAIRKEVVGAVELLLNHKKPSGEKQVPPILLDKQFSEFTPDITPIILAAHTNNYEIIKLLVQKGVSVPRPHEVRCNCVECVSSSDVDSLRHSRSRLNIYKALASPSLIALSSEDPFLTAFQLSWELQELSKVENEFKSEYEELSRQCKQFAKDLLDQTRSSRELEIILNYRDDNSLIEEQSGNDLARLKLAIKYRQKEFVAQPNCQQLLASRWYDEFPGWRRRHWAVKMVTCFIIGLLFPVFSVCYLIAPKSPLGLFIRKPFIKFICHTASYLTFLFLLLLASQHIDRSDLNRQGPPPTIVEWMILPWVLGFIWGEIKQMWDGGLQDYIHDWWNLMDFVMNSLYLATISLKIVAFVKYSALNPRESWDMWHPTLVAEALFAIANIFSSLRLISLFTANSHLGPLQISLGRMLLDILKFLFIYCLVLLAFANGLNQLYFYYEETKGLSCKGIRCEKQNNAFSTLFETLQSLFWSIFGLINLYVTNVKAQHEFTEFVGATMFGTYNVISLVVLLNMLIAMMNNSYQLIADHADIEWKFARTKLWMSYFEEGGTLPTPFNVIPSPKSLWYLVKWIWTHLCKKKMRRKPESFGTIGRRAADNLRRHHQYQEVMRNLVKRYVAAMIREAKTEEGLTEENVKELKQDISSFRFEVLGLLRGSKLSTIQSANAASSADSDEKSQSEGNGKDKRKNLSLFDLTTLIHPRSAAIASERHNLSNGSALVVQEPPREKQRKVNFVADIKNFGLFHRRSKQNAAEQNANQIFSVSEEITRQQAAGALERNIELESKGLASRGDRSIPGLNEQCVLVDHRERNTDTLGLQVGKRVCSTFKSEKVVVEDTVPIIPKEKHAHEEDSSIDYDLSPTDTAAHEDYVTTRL
# Mucolipin-3 = target: T3, Mucolipin-3 (Homo sapiens, UniProt Q8TDD5); experiment: Dose response cell-based high-throughput screening assay for agonists of the transient receptor potential channel ML3 (TRPML3). [Related pubchem assays: 1526, 1424, 1448 ]; type: functional
# T3 sequence (Q8TDD5 whole entry): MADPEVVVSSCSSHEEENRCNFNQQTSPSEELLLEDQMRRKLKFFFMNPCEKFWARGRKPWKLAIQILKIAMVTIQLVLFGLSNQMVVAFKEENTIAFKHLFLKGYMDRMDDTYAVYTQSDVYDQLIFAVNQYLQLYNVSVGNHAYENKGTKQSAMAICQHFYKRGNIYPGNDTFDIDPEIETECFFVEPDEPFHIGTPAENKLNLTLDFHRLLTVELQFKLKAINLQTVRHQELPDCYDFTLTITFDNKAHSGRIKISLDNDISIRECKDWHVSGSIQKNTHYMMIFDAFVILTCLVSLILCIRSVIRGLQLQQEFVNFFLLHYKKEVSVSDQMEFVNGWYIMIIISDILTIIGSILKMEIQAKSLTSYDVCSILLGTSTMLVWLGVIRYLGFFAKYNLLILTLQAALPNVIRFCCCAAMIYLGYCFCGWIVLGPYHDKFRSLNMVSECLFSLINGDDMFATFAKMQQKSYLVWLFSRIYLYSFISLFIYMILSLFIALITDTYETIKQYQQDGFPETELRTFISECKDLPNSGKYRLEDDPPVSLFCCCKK
# Ion channel NompC = Ion channel NompC (Danio rerio, UniProt Q7T1G6); experiment: Fluorescence counterscreen assay for TRPML3 agonists: dose response cell-based high-throughput screening assay to identify agonists of the transient receptor potential channel N1 (TRPN1). [Related pubchem assays: 1526, 1424, 1448 ]; type: functional
# Sequence of Ion channel NompC (Q7T1G6 whole entry): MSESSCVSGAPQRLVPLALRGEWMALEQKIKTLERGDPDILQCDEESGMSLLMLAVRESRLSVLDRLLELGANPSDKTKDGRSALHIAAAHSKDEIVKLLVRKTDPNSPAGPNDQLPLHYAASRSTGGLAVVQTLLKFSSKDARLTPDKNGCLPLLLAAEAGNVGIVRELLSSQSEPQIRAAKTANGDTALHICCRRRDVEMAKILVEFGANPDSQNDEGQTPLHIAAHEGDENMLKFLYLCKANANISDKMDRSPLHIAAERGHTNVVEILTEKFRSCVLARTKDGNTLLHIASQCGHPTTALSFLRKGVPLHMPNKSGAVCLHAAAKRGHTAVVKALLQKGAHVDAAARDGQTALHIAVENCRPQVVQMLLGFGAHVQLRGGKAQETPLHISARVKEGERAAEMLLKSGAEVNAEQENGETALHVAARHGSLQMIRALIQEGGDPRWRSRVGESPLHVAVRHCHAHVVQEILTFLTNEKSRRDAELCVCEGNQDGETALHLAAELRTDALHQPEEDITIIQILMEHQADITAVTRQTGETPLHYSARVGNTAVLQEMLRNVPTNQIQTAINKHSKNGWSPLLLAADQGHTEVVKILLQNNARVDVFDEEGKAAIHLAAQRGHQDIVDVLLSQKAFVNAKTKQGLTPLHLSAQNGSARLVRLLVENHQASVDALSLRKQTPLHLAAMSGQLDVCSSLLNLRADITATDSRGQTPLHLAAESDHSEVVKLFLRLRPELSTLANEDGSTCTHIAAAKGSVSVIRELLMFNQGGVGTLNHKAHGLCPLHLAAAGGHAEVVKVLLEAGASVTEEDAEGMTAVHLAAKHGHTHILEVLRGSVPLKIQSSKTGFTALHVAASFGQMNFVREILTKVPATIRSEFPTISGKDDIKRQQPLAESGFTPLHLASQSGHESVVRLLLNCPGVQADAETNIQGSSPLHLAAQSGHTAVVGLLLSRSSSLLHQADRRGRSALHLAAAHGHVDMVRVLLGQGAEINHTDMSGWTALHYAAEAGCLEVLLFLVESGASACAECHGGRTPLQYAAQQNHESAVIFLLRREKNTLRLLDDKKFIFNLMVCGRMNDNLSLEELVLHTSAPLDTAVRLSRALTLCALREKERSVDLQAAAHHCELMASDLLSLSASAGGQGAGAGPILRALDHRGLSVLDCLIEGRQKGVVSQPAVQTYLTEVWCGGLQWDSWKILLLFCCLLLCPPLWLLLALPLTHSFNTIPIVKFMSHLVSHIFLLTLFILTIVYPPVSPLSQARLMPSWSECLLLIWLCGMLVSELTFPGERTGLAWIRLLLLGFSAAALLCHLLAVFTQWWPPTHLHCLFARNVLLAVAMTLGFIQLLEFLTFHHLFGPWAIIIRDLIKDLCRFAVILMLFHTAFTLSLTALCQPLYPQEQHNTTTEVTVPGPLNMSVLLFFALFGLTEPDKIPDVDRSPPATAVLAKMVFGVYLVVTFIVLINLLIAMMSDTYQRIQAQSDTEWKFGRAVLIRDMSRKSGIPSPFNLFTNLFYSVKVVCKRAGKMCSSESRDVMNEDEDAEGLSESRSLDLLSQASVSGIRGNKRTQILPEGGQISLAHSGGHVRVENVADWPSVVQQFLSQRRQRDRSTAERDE
# X-box-binding protein 1 = target: T4, X-box-binding protein 1 (Homo sapiens, UniProt P17861); type: functional, Cricetulus griseus;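 further: confirmatory dose-response counter-screen serving a CHOP assay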
# T4 sequence (P17861 whole entry): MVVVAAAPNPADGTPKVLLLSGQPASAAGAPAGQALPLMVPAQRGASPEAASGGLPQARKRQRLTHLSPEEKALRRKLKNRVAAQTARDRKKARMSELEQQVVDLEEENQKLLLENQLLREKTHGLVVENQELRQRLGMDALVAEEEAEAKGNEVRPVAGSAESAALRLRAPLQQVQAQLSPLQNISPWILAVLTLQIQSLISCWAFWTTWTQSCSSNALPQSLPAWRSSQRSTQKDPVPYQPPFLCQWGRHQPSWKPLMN
# SUMO-activating enzyme = SUMO-activating enzyme (Homo sapiens, UniProt Q9UBT2); experiment: blockers of UBC9-mediated SUMO conjugation – biochemical, AlphaScreen, SUMOylation inhibitor project, confirmation (AID 2018); type: functional
# Sequence of SUMO-activating enzyme (Q9UBE0 whole entry): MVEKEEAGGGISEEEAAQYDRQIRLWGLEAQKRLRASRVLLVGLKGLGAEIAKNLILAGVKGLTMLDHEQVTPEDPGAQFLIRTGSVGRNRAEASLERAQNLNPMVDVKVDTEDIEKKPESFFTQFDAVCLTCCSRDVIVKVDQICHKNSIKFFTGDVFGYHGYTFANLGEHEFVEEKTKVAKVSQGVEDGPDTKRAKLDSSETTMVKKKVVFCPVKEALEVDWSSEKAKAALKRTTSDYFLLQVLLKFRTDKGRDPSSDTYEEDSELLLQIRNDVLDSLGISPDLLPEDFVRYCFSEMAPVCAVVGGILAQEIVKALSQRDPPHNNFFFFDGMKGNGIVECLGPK
# Sequence of SUMO-activating enzyme (Q9UBT2 whole entry): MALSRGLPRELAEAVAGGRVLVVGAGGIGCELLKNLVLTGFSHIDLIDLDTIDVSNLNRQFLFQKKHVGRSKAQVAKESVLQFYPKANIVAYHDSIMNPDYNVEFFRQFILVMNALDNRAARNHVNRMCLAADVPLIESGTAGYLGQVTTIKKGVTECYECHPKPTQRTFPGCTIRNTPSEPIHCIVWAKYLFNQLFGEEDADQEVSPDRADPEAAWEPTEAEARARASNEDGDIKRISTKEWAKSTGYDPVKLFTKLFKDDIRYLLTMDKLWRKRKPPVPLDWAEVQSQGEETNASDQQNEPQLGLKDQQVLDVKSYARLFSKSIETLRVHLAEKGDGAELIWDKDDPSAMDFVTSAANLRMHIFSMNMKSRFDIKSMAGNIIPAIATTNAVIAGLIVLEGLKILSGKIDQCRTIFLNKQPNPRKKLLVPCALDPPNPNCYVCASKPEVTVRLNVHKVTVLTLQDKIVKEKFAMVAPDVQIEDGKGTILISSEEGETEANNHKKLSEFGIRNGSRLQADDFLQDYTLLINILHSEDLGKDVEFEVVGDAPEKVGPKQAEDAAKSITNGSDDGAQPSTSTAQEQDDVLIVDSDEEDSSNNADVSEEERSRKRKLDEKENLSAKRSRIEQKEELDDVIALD
# BJ [4] = experiment: BJ-TERT fibroblast viability loss – cell-based, RAS-independent, luminescence, dose response (AID 1933); type: functional; conditions: Homo sapiens
# [5] = DRD fibroblast viability loss – cell-based, non-viral oncogenic, luminescence, dose response (AID 1934); type: functional; conditions: Homo sapiens
# [6] = target: T5, Corticotropin-releasing factor receptor 2/Corticotropin-releasing factor-binding protein (Homo sapiens, UniProt P24387+Q13324); experiment: activators of CRF receptor 2 with binding protein – uHTS hits, confirmation (AID 602473); type: functional; conditions: read-out: EC50_Mean
# T5 sequence (Q13324 whole entry): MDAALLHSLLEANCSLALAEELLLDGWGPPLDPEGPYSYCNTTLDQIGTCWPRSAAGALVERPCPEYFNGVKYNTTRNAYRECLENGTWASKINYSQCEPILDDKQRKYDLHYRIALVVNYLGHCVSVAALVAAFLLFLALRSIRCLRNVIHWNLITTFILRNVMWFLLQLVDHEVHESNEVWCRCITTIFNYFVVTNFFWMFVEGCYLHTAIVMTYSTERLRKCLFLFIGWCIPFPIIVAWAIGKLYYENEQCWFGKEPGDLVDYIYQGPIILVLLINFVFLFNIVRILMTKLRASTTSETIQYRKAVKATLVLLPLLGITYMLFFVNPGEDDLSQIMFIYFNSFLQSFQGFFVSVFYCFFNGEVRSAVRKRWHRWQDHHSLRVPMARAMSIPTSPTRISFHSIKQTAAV
# T5 sequence (P24387 whole entry): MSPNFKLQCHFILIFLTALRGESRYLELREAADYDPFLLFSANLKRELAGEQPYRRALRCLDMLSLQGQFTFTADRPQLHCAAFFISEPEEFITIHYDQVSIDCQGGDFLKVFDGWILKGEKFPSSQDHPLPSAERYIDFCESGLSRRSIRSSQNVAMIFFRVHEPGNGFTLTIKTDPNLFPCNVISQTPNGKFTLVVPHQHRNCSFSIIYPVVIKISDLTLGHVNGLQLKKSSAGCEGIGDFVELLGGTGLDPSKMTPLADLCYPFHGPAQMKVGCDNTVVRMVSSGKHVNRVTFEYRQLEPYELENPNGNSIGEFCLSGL
# BJ [7] = experiment: BJ-TERT-LT-ST fibroblast viability loss – cell-based, RAS-independent, luminescence, dose response (AID 1935); type: functional; conditions: Homo sapiens;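 further: BJ fibroblasts immortalized with TERT plus LT and ST oncogenes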
# BJ [8] = experiment: cells; type: functional, cell-based; conditions: Homo sapiens
# [9] = system: Streptococcus sp. 'group A'; experiment: Streptococcus pyogenes SK(-)GAS viability under kanamycin – luminescence, BacTiterGlo, confirmation, counter-screen for streptokinase expression inhibitor project, dose response (AID 1900); type: functional, organism-based
# [10] = viability of HCT116 lacking mutant beta-catenin – cell-based, human colon tumor, dose response (AID 1045); type: functional;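 further: HCT116 colon tumor cells with beta catenin knocked out; cells exposed to compound for 60 hours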
# Streptococcus = experiment: GAS UMAA2166 growth inhibition – luminescence, BacTiterGlo, counter-screen for streptokinase expression inhibitor project, dose response (AID 1915); type: functional, organism-based;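 further: potency for reduction of bacterial viability or growth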
# [11] = viability of PTEN-deleted HCT116 cells – cell-based, HCT116 PTEN knockout, dose response (AID 1047); type: functional;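 further: HCT116 colon tumor cells with PTEN knocked out; cells exposed to compound for 60 hours before readout; potency for loss of cell viability measured by luminescence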
# [12] = target: T6, Histone-lysine N-methyltransferase NSD2 (Homo sapiens, UniProt O96028); type: biochemical
# T6 sequence (O96028 whole entry): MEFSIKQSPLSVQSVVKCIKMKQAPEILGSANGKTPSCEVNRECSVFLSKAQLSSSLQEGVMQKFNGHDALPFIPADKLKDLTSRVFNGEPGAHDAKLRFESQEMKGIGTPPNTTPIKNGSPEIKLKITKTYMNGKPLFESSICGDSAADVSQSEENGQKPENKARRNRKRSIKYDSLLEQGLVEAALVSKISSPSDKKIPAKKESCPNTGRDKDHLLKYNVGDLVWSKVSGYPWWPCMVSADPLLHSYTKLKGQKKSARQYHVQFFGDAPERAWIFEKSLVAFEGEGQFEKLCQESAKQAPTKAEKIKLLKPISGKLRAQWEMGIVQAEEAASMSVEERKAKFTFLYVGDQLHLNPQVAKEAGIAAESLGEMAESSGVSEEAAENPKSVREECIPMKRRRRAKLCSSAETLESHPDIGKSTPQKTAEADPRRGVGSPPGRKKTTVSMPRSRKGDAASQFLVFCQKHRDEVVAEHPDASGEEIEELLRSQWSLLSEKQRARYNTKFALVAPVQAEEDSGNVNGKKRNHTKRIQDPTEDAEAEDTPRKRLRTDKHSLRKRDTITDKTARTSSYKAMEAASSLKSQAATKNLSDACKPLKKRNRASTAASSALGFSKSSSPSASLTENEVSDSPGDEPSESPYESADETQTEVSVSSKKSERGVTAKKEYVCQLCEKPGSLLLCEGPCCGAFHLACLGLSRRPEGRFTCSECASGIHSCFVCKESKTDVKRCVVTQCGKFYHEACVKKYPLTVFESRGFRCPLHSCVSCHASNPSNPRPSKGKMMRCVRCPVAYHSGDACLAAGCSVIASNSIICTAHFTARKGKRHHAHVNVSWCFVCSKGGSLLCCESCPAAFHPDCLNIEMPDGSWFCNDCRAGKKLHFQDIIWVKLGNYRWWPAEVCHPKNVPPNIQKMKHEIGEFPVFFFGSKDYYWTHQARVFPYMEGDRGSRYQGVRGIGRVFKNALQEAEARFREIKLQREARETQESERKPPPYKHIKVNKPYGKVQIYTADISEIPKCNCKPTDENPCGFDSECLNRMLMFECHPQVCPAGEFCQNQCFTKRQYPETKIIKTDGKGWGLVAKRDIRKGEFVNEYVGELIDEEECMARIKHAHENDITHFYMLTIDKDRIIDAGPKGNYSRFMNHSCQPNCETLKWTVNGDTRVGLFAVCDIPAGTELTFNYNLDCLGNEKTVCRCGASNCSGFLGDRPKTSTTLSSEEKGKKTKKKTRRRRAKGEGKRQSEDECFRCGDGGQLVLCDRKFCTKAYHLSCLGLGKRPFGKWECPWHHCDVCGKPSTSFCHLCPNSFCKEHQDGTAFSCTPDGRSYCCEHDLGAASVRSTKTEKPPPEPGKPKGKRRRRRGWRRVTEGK
# BJ [13] = experiment: growth inhibition of engineered Ras-driven BJ cells – cell-based, alamar blue fluorescence, cherrypicked samples, dose response (AID 2631); type: functional; conditions: Homo sapiens;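 further: confirmatory dose-response assay in RAS-dependent BJ fibroblasts engineered with TERT, LT and ST, with cytotoxicity read by fluorescence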
# [14] = target: Sphingosine 1-phosphate receptor 2 (Homo sapiens, UniProt O95136); experiment: Dose Response Cell Based Assay for Antagonists of the S1P2 Receptor. [Related pubchem assays: 856, 736 ]; type: functional
# Sequence of Sphingosine 1-phosphate receptor 2 (O95136 whole entry): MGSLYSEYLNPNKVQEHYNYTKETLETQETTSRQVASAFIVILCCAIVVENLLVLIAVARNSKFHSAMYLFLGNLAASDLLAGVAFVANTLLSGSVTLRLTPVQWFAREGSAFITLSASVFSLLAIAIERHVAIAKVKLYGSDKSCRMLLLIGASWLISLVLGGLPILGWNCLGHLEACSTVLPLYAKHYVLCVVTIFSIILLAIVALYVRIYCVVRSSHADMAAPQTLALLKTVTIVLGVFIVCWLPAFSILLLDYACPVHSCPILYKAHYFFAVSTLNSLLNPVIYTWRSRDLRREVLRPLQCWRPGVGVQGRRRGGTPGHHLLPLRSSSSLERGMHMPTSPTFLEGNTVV
# [15] = Luminescence Cell-Based Dose Retest to Confirm Inhibitors of Cancer Stem Cells. [Related pubchem assays (depositor defined):AID2717, AID2721]; type: functional; conditions: Homo sapiens
smiles,measurement,setting,value
Cc1cccc(N2CCN(C3=C(Cl)C(=O)N(c4ccc(Cl)c(Cl)c4)C3=O)CC2)c1,IC50,Bcl-2-related protein A1 [1],> 100 µM (not active)
same,IC50,Bcl-2-related protein A1 [2],> 100 µM (not active)
O=c1oc2ccccc2c(Nc2ccccc2)c1CN1CCCCC1,EC50,[3],3.35 µM (active)
Clc1ccc(-n2nnc(-c3cnc4ccccc4c3)n2)cn1,IC50,Bcl-2-related protein A1 [1],> 100 µM (not active)
same,IC50,Bcl-2-related protein A1 [2],> 100 µM (not active)
CN(CC(=O)ONC(=N)c1cccc([N+](=O)[O-])c1)S(=O)(=O)c1ccccc1,EC50,Mucolipin-3,12.4 µM (not active)
same,EC50,Ion channel NompC,> 29.9 µM (not active)
Cc1cccc(NC(=O)/C(C#N)=C/c2cn(CC(=O)NCc3ccco3)c3ccccc23)c1C,Absolute IC50 (XBP1),X-box-binding protein 1,< 10 µM
same,IC50,SUMO-activating enzyme,36.2 µM (active)
CCN1/C(=C\C=C\C2=[N+](CC)c3ccccc3C2(C)C)C(C)(C)c2ccccc21.[O-][Cl+3]([O-])([O-])[O-],EC50,BJ [4],0.395 µM (inconclusive)
same,EC50,[5],0.903 µM (active)
same,EC50,[6],3.74 µM (active)
same,EC50,BJ [7],2.01 µM (active)
same,EC50,BJ [8],0.664 µM (active)
same,EC50,[9],5.96 µM (active)
same,EC50,[10],< 0.059 µM (active)
same,EC50,Streptococcus,19.5 µM (active)
same,EC50,[11],< 0.059 µM (active)
same,AC50,[12],> 20 µM (inactive)
same,EC50,BJ [13],0.273 µM (active)
same,IC50,[14],0.587 µM (active)
O=C1C2C3C=CC(C3)C2C(=O)N1c1ccc(N2CCN(c3ccccn3)CC2)c([N+](=O)[O-])c1 (configuration not stated),EC50,Mucolipin-3,> 29.9 µM (not active)
same,AC50,[15],0.619 µM (active)
same,EC50,Ion channel NompC,> 29.9 µM (not active)
COC(=O)c1cnc(N2CCCN(S(=O)(=O)c3ccccc3)CC2)nc1C(F)(F)F,EC50,Mucolipin-3,> 29.9 µM (not active)
same,EC50,Ion channel NompC,> 29.9 µM (not active)
CN(C)CCCN(C(=O)c1ccc(S(=O)(=O)N2CCCC2)cc1)c1nc2c(F)cc(F)cc2s1,EC50,[3],3.76 µM (active)
